Tests used:
[1] = Prodrug conversion in Sprague-Dawley rat intestine assessed as 2-((4-(Benzo[d]thiazol-5-ylamino)-6-(tert-butylsulfonyl)quinazolin-7-yl)oxy)ethanol formation at 2 mg/kg, po or 0.5 mg/kg, iv measured at 15 to 120 mins post dose; type: ADME, organism-based; conditions: in vivo
[2] = Prodrug conversion in minipig hepatocytes assessed as benzothiazole ring opening at 20 uM measured after 4 hrs; type: ADME, cell-based, Sus scrofa, Hepatocyte; conditions: pig
[3] = Prodrug conversion in Han Wistar rat colon assessed as 2-((4-(Benzo[d]thiazol-5-ylamino)-6-(tert-butylsulfonyl)quinazolin-7-yl)oxy)ethanol formation at 2 mg/kg, iv administered as infusion for 4 hrs; type: ADME, organism-based; conditions: in vivo
[4] = Prodrug conversion in rat hepatocytes assessed as 2-((4-(Benzo[d]thiazol-5-ylamino)-6-(tert-butylsulfonyl)quinazolin-7-yl)oxy)ethanol formation at 20 uM measured after 4 hrs; type: ADME, cell-based, Hepatocyte
[5] = Volume of distribution at steady state in Sprague-Dawley rat at 2 mg/kg, po or 0.5 mg/kg, iv by LC/MS/MS analysis; type: ADME, organism-based; conditions: in vivo, read-out: Vdss
[6] = Terminal half life in Gottingen minipig at 1 mg/kg, po or 0.4 mg/kg, iv by LC/MS/MS analysis; type: ADME, organism-based, Sus scrofa; conditions: pig, in vivo, read-out: beta t1/2 (converted)
[7] = Inhibition of TNFR in human monocytes assessed as reduction in TNFalpha-induced IL8 production; type: cell-based
Intestinal mucosa [8] = assay: Antiinflammatory activity in ulcerative colitis patient derived inflamed intestinal mucosa assessed as reduction in IL1beta production measured after overnight incubation by immunoassay; type: functional, tissue-based; conditions: Homo sapiens
Intestinal mucosa [9] = assay: Antiinflammatory activity in crohn's disease patient derived inflamed intestinal mucosa assessed as reduction in IL6 production measured after overnight incubation by immunoassay; type: functional, tissue-based; conditions: Homo sapiens
[10] = AUC in Sprague-Dawley rat at 20 mg/kg, po using crystalline sample during 7 day dose ranging study by LC/MS/MS analysis; type: ADME, organism-based; conditions: in vivo
[11] = AUC in Sprague-Dawley rat at 60 mg/kg, po using crystalline sample during 7 day dose ranging study by LC/MS/MS analysis; type: ADME, organism-based; conditions: in vivo
[12] = Dose normalized AUC in Sprague-Dawley rat at 200 mg/kg, po using crystalline sample during 7 day dose ranging study by LC/MS/MS analysis; type: ADME, organism-based; conditions: in vivo, 168 h

Row | Drug metabolism [1] | Drug metabolism [2] | Drug metabolism [3] | Drug metabolism [4] | Vd [5] | half-life [6] | IC50 [7] | IC50 (Intestinal mucosa [9]) | AUC at 168 h [10] | AUC at 168 h [11] | AUC/dose [12] | SMILES | Activity (Intestinal mucosa [8]) | IC50 (Intestinal mucosa [8]) | Activity (Intestinal mucosa [9])
1 | Metabolite_Detected | Metabolite_Detected | Metabolite_Detected | Metabolite_Detected |  |  |  |  |  |  |  | CC(C)(C)S(=O)(=O)c1cc2c(Nc3ccc4scnc4c3)ncnc2cc1OCCOP(=O)(O)O.[CaH2] |  |  | 
2 |  |  |  |  | 4.1 L/kg | 1.9 h | > 10000 nM | 10 nM | 8800 ng·h/mL | 23400 ng·h/mL | 0.21 kg·h/L | CC(C)(C)S(=O)(=O)c1cc2c(Nc3ccc4scnc4c3)ncnc2cc1OCCO | Dose-dependent effect | 10 nM | Dose-dependent effect
